The test system of one series is Colinus virginianus. The conditions noted are these: reproduction developmental.
A further series relates to Canidae. The conditions noted are these: chronic; duration: 1 years; Dog Other.
The next series has as its system Landoltia sp. The conditions noted are these: chronic/long-term; duration: 7 days; frond number.
The subject of the next series is Folsomia candida. The conditions noted are these: chronic/long-term; duration: 28 days; reproduction.
The subject of another series is Tagia sp. The following applies: chronic/long-term; growth.
The subject of a further series is Xenopus laevis. The conditions noted are these: chronic/long-term, development.
The test system of another series is Rattus norvegicus. The following applies: for LD50: acute, mortality.
In a further series the test system is Daphnia magna. The following applies: chronic/long-term; duration: 28 days; reproduction.
The test system of a further series is Oncorhynchus mykiss. The following applies: acute; duration: 96 hours; mortality.
For the next series, the system named is Apis mellifera. The following applies: acute, mortality.
A further series has as its system Neomysis kadiakensis. The conditions noted are these: chronic/long-term; duration: 39 days; other.
The next series has as its system Pimephales promelas. The following applies: chronic/long-term; reproduction.
Another series deals with Anas platyrhynchos. The conditions noted are these: reproductive.
In a further series the test system is Coturnix japonica. The conditions noted are these: acute; oral; mortality.
The test system of another series is Typhlodromus pyri. As to the kind of experiment: LR50; higher = less toxic. The conditions noted are these: mortality.

Structures are written as SMILES. Bounds are passed on as bounds.

The values that follow come from EPA's ToxValDB 9.5 (doi:10.2903/j.efsa.2020.5755).

In the case of `S=C1NCCN1` [4,5-Dihydro-2-mercaptoimidazole], in the series on Colinus virginianus, the NOEL worked out at 1.8 mg/kg-day. Moreover, the NOAEL in the series with Canidae came out at 0.2 mg/kg-day; with Rattus norvegicus (chronic) it was 2 mg/kg-day; with Rattus norvegicus (developmental, development) it was 5 mg/kg-day; with Rattus norvegicus (reproduction developmental), 0.2 mg/kg-day. Further, the NOEC is 960000 µg/L in the series on Landoltia sp.; 10.6 mg/kg in the series with Folsomia candida; 24 mg/kg in the series with Tagia sp.; 10000 µg/L with Xenopus laevis (duration: 28 days); 1000 µg/L in the series on Xenopus laevis (duration: 90 days); 2000 µg/L in the series with Daphnia magna.

As for `O=C1NCCN1` [Ethylene urea], the LC50 in the series on Oncorhynchus mykiss is more than 122 µg/mL. In addition, the LD50 with Rattus norvegicus (oral) was more than 5000 mg/kg-day. Besides, in the series on Rattus norvegicus (reproduction developmental, oral, reproduction), the NOAEL turned out to be 37 mg/kg-day.

In the case of `S=C([S-])NCCNC(=S)[S-].S=C([S-])NCCNC(=S)[S-].[Mn+2].[Zn+2]` [Mancozeb], the LD50 is 162 µg/piece in the series on Apis mellifera (dermal); 141 µg/piece in the series on Apis mellifera (oral, unspecified); more than 2000 mg/kg-day in the series on Coturnix japonica; more than 2000 mg/kg-day in the series on Rattus norvegicus (oral). Moreover, the NOEC stood at 1.64 µg/L in the series on Neomysis kadiakensis, 1.35 µg/L with Pimephales promelas and 10 mg/kg in the series on Tagia sp.. Besides, the median lethal concentration (LC50) with Oncorhynchus mykiss amounted to 0.074 µg/mL. The molecule further had an NOEL in the series on Anas platyrhynchos of 18.6 mg/kg-day. Further, the NOAEL is 2 mg/kg-day in the series on Rattus norvegicus (chronic) and 6.8 mg/kg-day in the series with Rattus norvegicus (subchronic, duration: 90 days, oral, clinical chemistry). The LR50 in the series with Typhlodromus pyri (chronic/long-term, duration: 14 days) turned out to be 107 g/ha; in the series with Typhlodromus pyri (not reported), 26.7 g/ha.

Take `S=C1SSC2=NCCN12` [5,6-Dihydro-3H-imidazo[2,1-c]-1,2,4-dithiazole-3-thione]: in the series with Tagia sp., the NOEC was 20 mg/kg. The LD50 in the series with Rattus norvegicus (oral) stood at 240 mg/kg-day.

The NOAEL is the highest tested level that showed no adverse finding. Broadly, the LC50 is the concentration lethal to half of the exposed cells or organisms.
